From the supplement of paper PMC5579334

How the values were obtained:
ST8814 [1] = assay: relative IC50 (inflection point of fitted dose-response curve, CellTiter-Glo viability, 72 h; top asymptote may be below 50% inhibition); higher = less potent
Summary of the method: (§1)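 Viability was scored by CellTiter-Glo ATP luminescence, scaled from vehicle to positive-control wells, with duplicates averaged where present. The cells, MPNST lines and primary human Schwann cells at 750–1000 per well, sat 72 h at 37 °C, 5% CO2, in 384-well plates preprinted with each compound at five concentrations in 10-fold steps. Four-parameter logistic fits were run on the data. These fits give drug sensitivity score and relative IC50 censored at the top concentration, and percent inhibition is reported at the top concentration.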

HS-PSS [2] = assay: as above
Summary of the method: as §1

HSC2 [3] = assay: as above
Summary of the method: as §1

HS-Sch-2 = assay: as above
Summary of the method: as §1

S462 = assay: as above
Summary of the method: as §1

STS26T [4] = assay: as above
Summary of the method: as §1

YST-1 = assay: as above
Summary of the method: as §1

ST8814 [5] = assay: relative IC50 (inflection point of fitted dose-response curve, CellTox-Green cytotoxicity, 72 h; top asymptote may be below 50%); higher = less potent
Summary of the method: (§2)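 MPNST cell lines and primary human Schwann cells were incubated 72 h at 37 °C in 384-well plates holding five 10-fold compound dilutions. CellTox-Green was added before seeding at a final 1:1000 dilution and reported fluorescence from DNA released by disrupted cells. Signals were scaled to vehicle and positive-control wells, and cultures failing plate quality control were dropped. Drug sensitivity score and relative IC50 come from four-parameter logistic fits, with IC50 censored at the top concentration.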

HSC1 [6] = assay: as above
Summary of the method: as §2

HS-PSS [7] = assay: as above
Summary of the method: as §2

HSC2 [8] = assay: as above
Summary of the method: as §2

STS26T [9] = assay: as above
Summary of the method: as §2

HSC1 [10] = assay: relative IC50 (inflection point of fitted dose-response curve, CellTiter-Glo viability, 72 h; top asymptote may be below 50% inhibition); higher = less potent
Summary of the method: as §1

C=C(c1ccc(C(=O)O)cc1)c1cc2c(cc1C)C(C)(C)CCC2(C)C [Bexarotene]
relative IC50 (ST8814 [1]): > 10 µM | relative IC50 (HS-PSS [2]): > 10 µM | relative IC50 (HSC2 [3]): > 10 µM | relative IC50 (HS-Sch-2): > 10 µM | relative IC50 (S462): > 10 µM | relative IC50 (STS26T [4]): > 10 µM | relative IC50 (YST-1): > 10 µM | relative IC50 (ST8814 [5]): > 10 µM | relative IC50 (HSC1 [6]): > 10 µM | relative IC50 (HS-PSS [7]): > 10 µM | relative IC50 (HSC2 [8]): > 10 µM | relative IC50 (STS26T [9]): > 10 µM

CC1=NN(c2ccc(C(=O)O)cc2)C(=O)C1=Cc1ccc(-c2cc(C)c(C)cc2[N+](=O)[O-])o1 [C646]
relative IC50 (ST8814 [1]): > 25 µM | relative IC50 (HSC1 [10]): > 25 µM | relative IC50 (HSC2 [3]): > 25 µM | relative IC50 (HS-Sch-2): > 25 µM | relative IC50 (STS26T [4]): > 25 µM | relative IC50 (ST8814 [5]): > 25 µM | relative IC50 (HSC1 [6]): > 25 µM | relative IC50 (HS-PSS [7]): > 25 µM | relative IC50 (HSC2 [8]): 9.18 µM | relative IC50 (STS26T [9]): > 25 µM

COc1cc2c(Oc3ccc4[nH]c(C)cc4c3F)ncnc2cc1OCCCN1CCCC1 [Cediranib]
relative IC50 (ST8814 [1]): > 1 µM | relative IC50 (HSC2 [3]): > 1 µM | relative IC50 (HS-Sch-2): > 1 µM | relative IC50 (S462): > 1 µM | relative IC50 (STS26T [4]): > 1 µM | relative IC50 (YST-1): > 1 µM | relative IC50 (HSC1 [6]): > 1 µM | relative IC50 (HS-PSS [7]): > 1 µM | relative IC50 (STS26T [9]): > 1 µM

COCC1(CO)C(=O)C2CCN1CC2 (stereo not given) [Prima-1 Met]
relative IC50 (ST8814 [1]): > 10 µM | relative IC50 (HSC1 [10]): 0.572 µM | relative IC50 (HSC2 [3]): 2.14 µM | relative IC50 (ST8814 [5]): > 10 µM | relative IC50 (HSC1 [6]): > 10 µM | relative IC50 (HSC2 [8]): > 10 µM | relative IC50 (STS26T [9]): > 10 µM

CC1=C(/C=C/C(C)=C/C=C/C(C)=C/C(=O)O)C(C)(C)CCC1 [Tretinoin]
relative IC50 (HSC1 [10]): 0.361 µM | relative IC50 (HS-PSS [2]): > 10 µM | relative IC50 (HS-Sch-2): > 10 µM | relative IC50 (S462): > 10 µM | relative IC50 (YST-1): > 10 µM | relative IC50 (ST8814 [5]): > 10 µM | relative IC50 (HSC1 [6]): > 10 µM | relative IC50 (HS-PSS [7]): > 10 µM | relative IC50 (HSC2 [8]): > 10 µM | relative IC50 (STS26T [9]): > 10 µM

CO[C@H]1C[C@@H]2CC[C@@H](C)[C@@](O)(O2)C(=O)C(=O)N2CCCC[C@H]2C(=O)O[C@H]([C@H](C)C[C@@H]2CC[C@@H](O)[C@H](OC)C2)CC(=O)[C@H](C)/C=C(\C)[C@@H](O)[C@@H](OC)C(=O)[C@H](C)C[C@H](C)/C=C/C=C/C=C/1C [Sirolimus]
relative IC50 (HS-PSS [2]): 0.00371 µM | relative IC50 (HS-Sch-2): 0.00638 µM | relative IC50 (S462): > 0.1 µM | relative IC50 (STS26T [4]): 0.0217 µM | relative IC50 (YST-1): 0.00609 µM | relative IC50 (ST8814 [5]): > 0.1 µM | relative IC50 (HSC1 [6]): > 0.1 µM | relative IC50 (HS-PSS [7]): > 0.1 µM | relative IC50 (HSC2 [8]): > 0.1 µM | relative IC50 (STS26T [9]): > 0.1 µM

Nc1ncnc2c1c(COc1cccc(Cl)c1)nn2C1CCOCC1
relative IC50 (ST8814 [1]): > 10 µM | relative IC50 (HS-PSS [2]): > 10 µM | relative IC50 (HSC2 [3]): > 10 µM | relative IC50 (S462): > 10 µM | relative IC50 (YST-1): > 10 µM | relative IC50 (ST8814 [5]): > 10 µM | relative IC50 (HSC1 [6]): > 10 µM | relative IC50 (HS-PSS [7]): > 10 µM | relative IC50 (HSC2 [8]): > 10 µM | relative IC50 (STS26T [9]): > 10 µM

CN1CCC(COc2cnc(-c3cccc(Cn4nc(-c5cccc(C#N)c5)ccc4=O)c3)nc2)CC1
relative IC50 (ST8814 [1]): > 1 µM | relative IC50 (HSC1 [10]): > 1 µM | relative IC50 (HS-PSS [2]): > 1 µM | relative IC50 (HSC2 [3]): > 1 µM | relative IC50 (HS-Sch-2): > 1 µM | relative IC50 (YST-1): > 1 µM | relative IC50 (ST8814 [5]): > 1 µM | relative IC50 (HSC1 [6]): > 1 µM | relative IC50 (HS-PSS [7]): > 1 µM | relative IC50 (HSC2 [8]): > 1 µM

CNC(=O)c1ccc(N2C(=S)N(c3ccc(C#N)c(C(F)(F)F)c3)C(=O)C23CCC3)cc1F [RD162]
relative IC50 (HS-PSS [2]): > 10 µM | relative IC50 (HSC2 [3]): > 10 µM | relative IC50 (HS-Sch-2): > 10 µM | relative IC50 (S462): > 10 µM | relative IC50 (STS26T [4]): > 10 µM | relative IC50 (YST-1): > 10 µM | relative IC50 (ST8814 [5]): > 10 µM | relative IC50 (HSC1 [6]): > 10 µM | relative IC50 (HS-PSS [7]): > 10 µM | relative IC50 (HSC2 [8]): > 10 µM | relative IC50 (STS26T [9]): > 10 µM

Nc1ncn([C@H]2C[C@H](O)[C@@H](CO)O2)c(=O)n1 [Decitabine]
relative IC50 (HS-PSS [2]): > 10 µM | relative IC50 (HSC2 [3]): 2.26 µM | relative IC50 (HS-Sch-2): 0.782 µM | relative IC50 (S462): 0.273 µM | relative IC50 (YST-1): > 10 µM | relative IC50 (ST8814 [5]): > 10 µM | relative IC50 (HSC1 [6]): > 10 µM | relative IC50 (HS-PSS [7]): > 10 µM | relative IC50 (HSC2 [8]): > 10 µM | relative IC50 (STS26T [9]): > 10 µM

CCC/C=C/C=C/C(=O)O[C@H]1/C(=C/C(=O)OC)C[C@H]2C[C@H]([C@@H](C)O)OC(=O)C[C@H](O)C[C@@H]3C[C@H](OC(C)=O)C(C)(C)[C@](O)(C[C@@H]4C/C(=C/C(=O)OC)C[C@H](/C=C/C(C)(C)[C@]1(O)O2)O4)O3 [Bryostatin 1]
relative IC50 (ST8814 [1]): > 0.1 µM | relative IC50 (HSC1 [10]): > 0.1 µM | relative IC50 (HSC2 [3]): > 0.1 µM | relative IC50 (HS-Sch-2): 0.00041 µM | relative IC50 (YST-1): > 0.1 µM | relative IC50 (ST8814 [5]): > 0.1 µM | relative IC50 (HSC1 [6]): > 0.1 µM | relative IC50 (HS-PSS [7]): > 0.1 µM | relative IC50 (HSC2 [8]): > 0.1 µM | relative IC50 (STS26T [9]): > 0.1 µM

CNC(=O)c1ccc(N2C(=S)N(c3ccc(C#N)c(C(F)(F)F)c3)C(=O)C2(C)C)cc1F [Enzalutamide]
relative IC50 (HS-PSS [2]): > 10 µM | relative IC50 (HSC2 [3]): > 10 µM | relative IC50 (HS-Sch-2): > 10 µM | relative IC50 (S462): > 10 µM | relative IC50 (STS26T [4]): > 10 µM | relative IC50 (YST-1): > 10 µM | relative IC50 (ST8814 [5]): > 10 µM | relative IC50 (HSC1 [6]): > 10 µM | relative IC50 (HS-PSS [7]): > 10 µM | relative IC50 (HSC2 [8]): > 10 µM | relative IC50 (STS26T [9]): > 10 µM

Nc1cccc2c1C(=O)N(C1CCC(=O)NC1=O)C2=O (stereo not given) [Pomalidomide]
relative IC50 (ST8814 [1]): > 10 µM | relative IC50 (HSC1 [10]): > 10 µM | relative IC50 (HS-PSS [2]): > 10 µM | relative IC50 (HSC2 [3]): > 10 µM | relative IC50 (HS-Sch-2): > 10 µM | relative IC50 (STS26T [4]): > 10 µM | relative IC50 (YST-1): > 10 µM | relative IC50 (ST8814 [5]): > 10 µM | relative IC50 (HSC1 [6]): > 10 µM | relative IC50 (HS-PSS [7]): > 10 µM | relative IC50 (HSC2 [8]): > 10 µM | relative IC50 (STS26T [9]): > 10 µM

Nc1nc(Cl)nc2c1ncn2[C@H]1C[C@H](O)[C@@H](CO)O1 [Cladribine]
relative IC50 (HSC1 [10]): 0.151 µM | relative IC50 (HS-PSS [2]): 0.366 µM | relative IC50 (HSC2 [3]): 0.174 µM | relative IC50 (HS-Sch-2): 0.351 µM | relative IC50 (STS26T [4]): 0.226 µM | relative IC50 (YST-1): 0.321 µM | relative IC50 (HSC1 [6]): 0.35 µM | relative IC50 (HSC2 [8]): 0.319 µM

Cc1ccc(Nc2nccc(N(C)c3ccc4c(C)n(C)nc4c3)n2)cc1S(N)(=O)=O [Pazopanib]
relative IC50 (ST8814 [1]): > 10 µM | relative IC50 (HS-PSS [2]): 0.605 µM | relative IC50 (S462): > 10 µM | relative IC50 (STS26T [4]): > 10 µM | relative IC50 (YST-1): > 10 µM | relative IC50 (ST8814 [5]): > 10 µM | relative IC50 (HSC1 [6]): > 10 µM | relative IC50 (HS-PSS [7]): > 10 µM | relative IC50 (HSC2 [8]): > 10 µM | relative IC50 (STS26T [9]): > 10 µM

CCN(CC)CCNC(=O)c1c(C)[nH]c(/C=C2\C(=O)Nc3ccc(F)cc32)c1C [Sunitinib]
relative IC50 (HSC1 [10]): > 1 µM | relative IC50 (HSC2 [3]): > 1 µM | relative IC50 (HS-Sch-2): > 1 µM | relative IC50 (STS26T [4]): > 1 µM | relative IC50 (YST-1): > 1 µM | relative IC50 (ST8814 [5]): > 1 µM | relative IC50 (HSC1 [6]): > 1 µM | relative IC50 (HS-PSS [7]): > 1 µM | relative IC50 (HSC2 [8]): > 1 µM | relative IC50 (STS26T [9]): > 1 µM
